# Tests used:
# [1] = target: FLNA pentapeptide of SEQ ID NO: 1 (Bn-VAKGL) (Homo sapiens, UniProt P21333); experiment: FITC-NLX-based FLNA screening assay (inhibition of FITC-naloxone binding to Bn-VAKGL on streptavidin plates); details: 10 nM FITC-NLX, read-out: Percent Binding Inhibition; for inhibition at 0.01 µM: FLNA-binding compound 0.01 μM; for inhibition at 0.1 µM: FLNA-binding compound 0.1 μM; for inhibition at 1 µM: FLNA-binding compound 1 μM
# [2] = system: mu opiate receptor (MOR); experiment: MOR agonist activity using [35S]GTPγS binding assay in striatal membranes; assay type: biochemical
# How it was run: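 Striatal membranes (200 μg) were preincubated 5 min at 30 °C in HEPES pH 7.5 with 100 mM NaCl, 1 mM MgCl2 and 0.5 nM [35S]GTPγS, then 5 min more with 0.1–10 μM compound. Gαo was immunoprecipitated and bound radioactivity counted by scintillation.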
# [3] = target: sigma σ1 receptor (Homo sapiens, UniProt Q99720); experiment: Standard receptor binding assay; details: 10 μM concentration
# [4] = target: biotinylated pentapeptide (Bn-VAKGL) of SEQ ID NO: 1 (Homo sapiens, UniProt P21333); experiment: Inhibition of [3H]NLX binding to biotinylated pentapeptide (Bn-VAKGL); details: read-out: IC50, inhibition of [3H]NLX binding to Bn-VAKGL; single affinity state
# Excerpt: Data are derived from 6 studies, each using a different set of A7 cells.
# [5] = system: adrenergic α1 receptors; experiment: Standard receptor binding assay; details: 10 μM concentration
# [6] = system: BxPC3 pancreatic cancer cell implants; experiment: Xenograft tumor size study; details: gemcitabine at 50 mg/kg i.p. b.i.d.
# sigma σ1 receptor, sequence (Q99720 whole entry): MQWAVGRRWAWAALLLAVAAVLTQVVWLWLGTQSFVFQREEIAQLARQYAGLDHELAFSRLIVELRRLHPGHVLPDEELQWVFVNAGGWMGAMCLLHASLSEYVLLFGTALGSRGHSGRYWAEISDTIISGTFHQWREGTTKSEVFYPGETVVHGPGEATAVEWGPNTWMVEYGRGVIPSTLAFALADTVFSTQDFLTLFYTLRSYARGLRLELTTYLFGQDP
compound,measurement,setting,value
CC1CN(CC(O)COc2cccc(F)c2)CC(C)O1 (centres unmarked) [Compound A0049],inhibition at 0.01 µM,[1],46.2%
same,inhibition at 0.1 µM,[1],49.4%
same,inhibition at 1 µM,[1],49.3%
same,"MOR agonist activity ([35S]GTPγS binding), FLNA-Binding Compound as Agonist 0.1 μM",[2]; 0.1 μM compound,232.3%
same,% DAMGO (0.1 μM),[2]; 0.1 μM compound relative to DAMGO,118.4%
same,"MOR agonist activity ([35S]GTPγS binding), FLNA-Binding Compound as Agonist 1 μM",[2]; 1 μM compound,370.3%
same,"MOR agonist activity ([35S]GTPγS binding), FLNA-Binding Compound as Agonist 1 μM + BFNA",[2]; 1 μM compound + 1 μM β-funaltrexamine,107.1%
same,% DAMGO + BFNA,[2]; 1 μM compound + BFNA relative to DAMGO + BFNA,144.9%
same,% DAMGO (1 μM),[2]; 1 μM compound relative to DAMGO,134.2%
same,Activity at sigma σ1 receptor,[3],antagonist
O=C1CC[C@@]2(O)[C@H]3Cc4ccc(O)c5c4[C@@]2(CCN3CC2CC2)[C@H]1O5 [Naltrexone],IC50,[4],0.043 nM
COc1ccc(S(=O)(=O)N2CCOC23CCNCC3)cc1 [Compound C0027],inhibition at 0.01 µM,[1],50.8%
same,inhibition at 0.1 µM,[1],61.2%
same,inhibition at 1 µM,[1],63.8%
same,% DAMGO (0.1 μM),"[2]; Series C-2, 0.1 μM compound, relative to DAMGO",121.3%
same,"MOR agonist activity, percent [35S]GTPγS binding at the stated compound concentration","[2]; Series C-2, 0.1 μM compound, [35S]GTPγS binding to Gαo, striatal membranes",233.2%
same,"MOR agonist activity, percent [35S]GTPγS binding at the stated compound concentration","[2]; Series C-2, 1 μM compound + 1 μM β-FNA",72.2%
same,% DAMGO + BFNA,"[2]; Series C-2, 1 μM compound + β-FNA, relative to DAMGO + BFNA",164.5%
same,% DAMGO (1 μM),"[2]; Series C-2, 1 μM compound, relative to DAMGO",115.0%
same,"MOR agonist activity, percent [35S]GTPγS binding at the stated compound concentration","[2]; Series C-2, 1 μM compound, [35S]GTPγS binding to Gαo, striatal membranes",313.9%
same,Activity at sigma σ1 receptor,[3],antagonist
same,Activity at adrenergic α1 receptors,[5],antagonist
Nc1ccn([C@@H]2O[C@H](CO)[C@@H](O)C2(F)F)c(=O)n1 [gemcitabine],Tumor growth,[6],slowed growth but did not shrink BxPC3 xenograft tumors

# — patent US10363239B2, “Method for inhibiting growth of cancer cells” (Pain Therapeutics, Inc., priority 2013, dated 2019)
